Key:
[1] = reported clinical Cmax; cited from earlier work
[2] = system: HLO microarrays (iPSC-derived human liver organoids); assay: HLO microarray cytotoxicity, DRAQ7-positive nuclei (dead cells); assay type: cell-based; conditions: 168 h, seven-day repeated-dose treatment, Figure 2C, read-out: Cell death (% Draq7+ cells) IC50
Description: HLO microarrays were exposed to seven‐day repeated‐dose treatment of Chlorpromazine and Flucloxacillin across five half‐log‐spaced concentrations, with vehicle‐treated wells serving as controls. Following treatment, cell viability was assessed by quantifying total cellular ATP content using the CellTiter‐Glo assay, while cytotoxicity was determined by counting DRAQ7‐positive nuclei (dead cells) in organoids. Hepatic functionality was further evaluated by measuring albumin secretion in the culture supernatant via ELISA (Figure 2A). Chlorpromazine (Sigma) and Streptomycin (MCE) were dissolved in DMSO, and 5–7 serial dilutions of 200 × stock solutions were prepared alongside corresponding vehicle controls (0.5% DMSO). Aliquots were frozen to ensure consistency across experiments. On the day of treatment, aliquots were thawed and diluted in liver maturation medium to achieve final working concentrations. […] Dose‐response curves and IC50 values were determined by nonlinear regression of log‐transformed compound concentrations (6‐8 point serial dilutions including vehicle) against normalized viability data. […] To contextualize in vitro toxicity data with human exposure levels, Margin of Safety (MOS) values were calculated as the ratio of the in vitro IC50 to the compound's reported clinical maximum plasma concentration (MOS = IC50 / Cmax).

[3] = system: HLO microarrays (iPSC-derived human liver organoids); assay: cells
Description: HLO microarrays were exposed to seven‐day repeated‐dose treatment of Chlorpromazine and Flucloxacillin across five half‐log‐spaced concentrations, with vehicle‐treated wells serving as controls. Following treatment, cell viability was assessed by quantifying total cellular ATP content using the CellTiter‐Glo assay, while cytotoxicity was determined by counting DRAQ7‐positive nuclei (dead cells) in organoids. Hepatic functionality was further evaluated by measuring albumin secretion in the culture supernatant via ELISA (Figure 2A).
Chlorpromazine (Sigma) and Streptomycin (MCE) were dissolved in DMSO, and 5–7 serial dilutions of 200 × stock solutions were prepared alongside corresponding vehicle controls (0.5% DMSO). Aliquots were frozen to ensure consistency across experiments. On the day of treatment, aliquots were thawed and diluted in liver maturation medium to achieve final working concentrations. Flucloxacillin (Sigma) was freshly prepared in liver maturation medium immediately prior to each dosing. HLO microarrays were treated over a 7‐day period, with a single re‐dosing and media refreshment on day 3. The highest concentrations tested for all compounds were 1000 µM.
Cell viability was assessed on day 7 using the CellTiter‐Glo 3D Cell Viability Assay (Promega, Cat. G9682). Luminescence was recorded using a Spectra Max iD3 microplate reader (Molecular Devices) following the manufacturer's recommended settings. Viability data from compound‐treated HLOs were normalized to the corresponding vehicle controls on the same plate.
Dose‐response curves and IC50 values were determined by nonlinear regression of log‐transformed compound concentrations (6‐8 point serial dilutions including vehicle) against normalized viability data. Curve fitting was performed using a variable Hill slope and constraining the top and bottom of the curve to 100 and 0, respectively (GraphPad Prism, GraphPad Software, La Jolla, CA, USA). To contextualize in vitro toxicity data with human exposure levels, Margin of Safety (MOS) values were calculated as the ratio of the in vitro IC50 to the compound's reported clinical maximum plasma concentration (MOS = IC50 / Cmax).

[4] = system: HLO microarrays (iPSC-derived human liver organoids); assay: Albumin secretion of HLO microarrays in culture supernatant (ELISA); assay type: cell-based; conditions: 168 h, seven-day repeated-dose treatment, Figure 2E, read-out: Albumin release (% of control) IC50
Excerpt: Hepatic functionality was further evaluated by measuring albumin secretion in the culture supernatant via ELISA (Figure 2A). […] Aliquots were frozen to ensure consistency across experiments. On the day of treatment, aliquots were thawed and diluted in liver maturation medium to achieve final working concentrations. Flucloxacillin (Sigma) was freshly prepared in liver maturation medium immediately prior to each dosing.

[5] = system: HLOs co-cultured with autologous Flucloxacillin-primed CD8+ T cells; assay: Autologous HLO - CD8+ T cell co-culture, immune-mediated hepatocyte injury; assay type: cell-based, human
Description: To model immune‐mediated liver injury, Flucloxacillin‐primed CD8⁺ T cells from three HLA‐B*57:01 carrier and three HLA‐B*57:01 non‐carrier donors were co‐cultured with autologous HLOs pre‐treated with Flucloxacillin (Figure 5A). Co‐cultures with unprimed CD8⁺ T cells served as controls to exclude non‐specific T cell reactivity. HLOs were generated from iPSC lines derived from donor PBMCs and exposed to 100 µM Flucloxacillin for 72 h before initiating co‐culture. On day 23 of maturation, HLOs were co‐cultured with unprimed or Flux‐primed CD8⁺ T cells to assess immune‐mediated hepatocyte injury. Liver damage was quantified using immunofluorescence‐based detection of DRAQ7⁺ dead cells and measurement of cytokeratin‐18 (CK‐18) release, a highly specific biomarker of early‐stage DILI. CK‐18, an intermediate filament protein expressed in hepatocytes and cholangiocytes but absent in immune cells, provided greater specificity for hepatocyte death than traditional markers such as LDH or ATP.
Culture supernatants were analyzed to quantify albumin and CK18 levels using sandwich ELISA kits (Albumin, Abcam, and M65 EpiDeath CK18Diapharma) according to manufacturer's protocols. TNFα and Granzyme B secretion were measured using the Luminex Discovery Assay kit (R&D Systems/Biotechne) according to the manufacturer's protocol.
Following initial 12 day priming as described above, CD8^+ T cells were stained with CFSE (5 µM, Fisher Scientific, Catalog No. 11‐0699‐42) and resuspended in an optimized co‐culture media. This media consisted of a 1:1 mixture of complete RPMI (RPMI + 1% penicillin/streptomycin and 150 IU mL^−1 IL‐2) and modified liver maturation media (excluding HGF, dexamethasone and hydrocortisone) supplemented with 10 IU mL^−1 IL‐7 and 10 IU/ml IL‐15. Labeled CD8⁺ T cells were added to mature (day 23) HLO microarray cultures at effector‐to‐target (E:T) ratios of 1:1 and 1:5. These ratios were chosen to reflect the localized enrichment of cytotoxic lymphocytes observed during immune‐mediated liver injury, including periportal CD8⁺ T cell infiltration in flucloxacillin‐induced DILI (PMID: 24 731 753).^[ [14] ^] Prior to co‐culture, HLO were pretreated with 100 µM Flucloxacillin for 72 h. The co‐culture was maintained for 72 h with media exchanges performed every 24 h. When indicated, T cell activation was induced using anti‐CD3 (1 µg ml^−1, BioLegend) and anti‐CD28 (1 µg ml^−1, BioLegend) antibodies.

CD8+ T cells = assay: Monocyte-derived dendritic cell (mDC) priming assay of naïve CD8+ T cells, flow cytometry; assay type: cell-based, human
Excerpt: Peripheral blood samples were collected from four HLA‐B*57:01 carriers and four HLA‐B*57:01 non‐carrier donors (Figure 4B). To generate antigen‐specific CD8⁺ T cells, we employed a monocyte‐derived dendritic cell (mDC) priming assay (Figure 4A). Naïve CD8⁺ T cells and monocytes were isolated from peripheral blood mononuclear cells (PBMCs) of each donor. mDCs were differentiated using IL‐4 and GM‐CSF, followed by maturation and activation with LPS and IFN‐γ. Mature mDCs were then loaded with Flucloxacillin or media alone and used to prime naïve CD8⁺ T cells. After priming, CD8⁺ T cells (i.e., Flucloxacillin‐primed CD8^+ T cells) were expanded in the presence of a low dose of IL‐15 for 10 days, followed by CFSE labeling and re‐stimulation with freshly loaded mDCs under the same conditions. Flow cytometry was used to assess CD8⁺ T cell maturation, proliferation, and post‐priming activation. […] T cell antigen‐specific activation efficacy was evaluated using multi‐color flow cytometry with Diva and FlowJo (BD software). T cell proliferation and activation were assessed using CFSE (1 µM, ThermoFisher) for proliferation, Human TruStain FcX for Fc receptor blocking, and a panel of antibodies including CD3 (clone UCHT1), CD8 (clone 3B5), CD4 (clone RPA‐T4), CD45RO (clone UCHL1), CD107a (clone H4A3), HLA‐DR (clone TU36), CD137 (clone 4B4), and CD69 (clone FN50). […]

[6] = Homo sapiens, 168 h, read-out: Cell Viability (% of control) IC50, ATP-based, seven-day repeated-dose treatment, Figure 2D
[7] = Homo sapiens, read-out: average IC50, average across three independent iPSC-derived HLO lines (donors), Figure S2

| Compound | Cmax [1] [µM] | IC50 [2] [µM] | IC50 [3, 6] [µM] | IC50 [3, 7] [µM] | margin of safety (MOS = IC50 / Cmax) ([3]; human, 7 days) | IC50 ([3]; read-out: Cell Viability (% of control) IC50, ATP-based, seven-day repeated-dose treatment, Figure 2D) [µM] | IC50 [4] [µM] | secretion of TNF-α and Granzyme B ([5]; primed CD8+ T cells from HLA-B*57:01 carrier donors 534 and 622) | CK-18 release ([5]; primed CD8+ T cells from HLA-B*57:01 carrier donors 534 and 622, HLOs pre-treated with 100 µM for 72 h) | increase in DRAQ7+ cell death compared to T cell-free controls ([5]; primed CD8+ T cells from HLA-B*57:01 carrier donors 534 and 622, HLOs pre-treated with 100 µM for 72 h, 72 h co-culture) [fold] | hepatocyte death or CK-18 release ([5]; primed T cells from weak-responder HLA-B*57:01 carriers and all non-carrier donors) | cytotoxicity at clinically relevant exposures [3] | CD8+ T cell response to priming (CD8+ T cells; HLA-B*57:01 non-carrier donors) | increase in T cell proliferation (CFSElow cells) and activation marker expression relative to media-alone priming (CD8+ T cells; two of four HLA-B*57:01-positive donors (robust responders), DCs pulsed with 1000 µM) |
| --- | --- | --- | --- | --- | --- | --- | --- | --- | --- | --- | --- | --- | --- | --- |
| CN(C)CCCN1c2ccccc2Sc2ccc(Cl)cc21 [Chlorpromazine] | ~0.94 | 19.7 | 14.5 | 11.1 | ≈ 15.3 | 14.4 | 6.36 | – | – | – | – | – | – | – |
| Cc1onc(-c2c(F)cccc2Cl)c1C(=O)N[C@@H]1C(=O)N2[C@@H]1SC(C)(C)[C@@H]2C(=O)O [Flucloxacillin] | ~31 | > 1000 | > 1000 | – | – | – | > 1000 | increased secretion | significantly elevated | 4 | failed to induce hepatocyte death | no cytotoxicity | did not exhibit a comparable response | over 2 fold |
| [H]/N=C(/N)N[C@H]1[C@H](O)[C@@H](O)[C@H](O[C@@H]2O[C@@H](C)[C@](O)(C=O)[C@H]2O[C@@H]2O[C@@H](CO)[C@H](O)[C@@H](O)[C@@H]2NC)[C@@H](N/C(N)=N\[H])[C@@H]1O [Streptomycin] | ~72.2 | – | – | 341 | – | – | – | – | – | – | – | no cytotoxicity | – | – |

From PMC12631937, “Autologous Organoid‐T Cell Co‐Culture Platform for Modeling of Immune‐Mediated Drug‐Induced Liver Injury” (Advanced Science, 2025)
